Measurements reported in PMC11208149, “Structure of plant photosystem I in a native assembly state defines PsaF as a regulatory checkpoint” (Nature Plants, 2024).

What was measured:
mature PSI = target: T1, mature PSI (Avena sativa, UniProt A0A3G1AUL2+A0A3G1AZK6); test: cryo-EM structure ([…] Å); assay type: binding
T1 construct: gene psaA; native PSI-LHCI complex purified from mature green leaves, detergent-solubilised; with Photosystem I iron-sulfur center; Photosystem I reaction center subunit II, chloroplastic; Photosystem I reaction center subunit IV, chloroplastic; Photosystem I reaction center subunit III, chloroplastic; Photosystem I reaction center subunit V, chloroplastic; Photosystem I reaction center subunit VI, chloroplastic; Photosystem I reaction center subunit VIII; Photosystem I reaction center subunit IX; Photosystem I reaction center subunit psaK, chloroplastic; Photosystem I reaction center subunit XI, chloroplastic; Photosystem I reaction center subunit N, chloroplastic

[1] = target: T2, pre-PSI-1 (PSI assembly intermediate) (Avena sativa, UniProt A0A3G1AUL2+A0A3G1AZK6); test: cryo-EM structure ([…] Å); assay type: binding; details: native cofactor; site PQN844 of PsaA
T2 construct: gene psaA; native eight-subunit complex from thylakoids of greening seedlings (10 h light), DDM-solubilised; lacks PsaF, PsaG, PsaJ, PsaK, PsaN and LHCI; with Photosystem I iron-sulfur center; Photosystem I reaction center subunit II, chloroplastic; Photosystem I reaction center subunit IV, chloroplastic; Photosystem I reaction center subunit VI, chloroplastic; Photosystem I reaction center subunit VIII; Photosystem I reaction center subunit XI, chloroplastic
T2 sequence (A0A3G1AUL2 1-750): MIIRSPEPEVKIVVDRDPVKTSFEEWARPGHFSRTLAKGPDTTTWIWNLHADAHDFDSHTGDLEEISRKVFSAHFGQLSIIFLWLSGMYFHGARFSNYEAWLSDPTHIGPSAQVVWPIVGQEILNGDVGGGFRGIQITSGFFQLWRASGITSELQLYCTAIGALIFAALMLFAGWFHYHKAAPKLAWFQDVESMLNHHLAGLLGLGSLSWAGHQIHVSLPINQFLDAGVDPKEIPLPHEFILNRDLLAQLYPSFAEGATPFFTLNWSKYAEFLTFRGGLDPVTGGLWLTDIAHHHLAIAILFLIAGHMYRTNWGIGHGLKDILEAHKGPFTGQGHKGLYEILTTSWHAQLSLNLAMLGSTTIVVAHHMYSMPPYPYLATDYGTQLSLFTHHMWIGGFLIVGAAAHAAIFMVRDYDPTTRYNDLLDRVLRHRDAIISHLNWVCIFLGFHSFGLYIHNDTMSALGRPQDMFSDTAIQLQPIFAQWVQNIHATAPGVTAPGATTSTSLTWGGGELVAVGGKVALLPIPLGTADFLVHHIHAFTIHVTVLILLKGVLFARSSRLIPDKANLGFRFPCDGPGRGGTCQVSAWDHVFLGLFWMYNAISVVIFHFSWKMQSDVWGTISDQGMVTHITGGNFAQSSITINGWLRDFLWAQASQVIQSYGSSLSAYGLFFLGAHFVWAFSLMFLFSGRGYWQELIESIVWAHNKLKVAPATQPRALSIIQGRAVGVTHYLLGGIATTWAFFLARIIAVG
T2 sequence (A0A3G1AZK6 1-734): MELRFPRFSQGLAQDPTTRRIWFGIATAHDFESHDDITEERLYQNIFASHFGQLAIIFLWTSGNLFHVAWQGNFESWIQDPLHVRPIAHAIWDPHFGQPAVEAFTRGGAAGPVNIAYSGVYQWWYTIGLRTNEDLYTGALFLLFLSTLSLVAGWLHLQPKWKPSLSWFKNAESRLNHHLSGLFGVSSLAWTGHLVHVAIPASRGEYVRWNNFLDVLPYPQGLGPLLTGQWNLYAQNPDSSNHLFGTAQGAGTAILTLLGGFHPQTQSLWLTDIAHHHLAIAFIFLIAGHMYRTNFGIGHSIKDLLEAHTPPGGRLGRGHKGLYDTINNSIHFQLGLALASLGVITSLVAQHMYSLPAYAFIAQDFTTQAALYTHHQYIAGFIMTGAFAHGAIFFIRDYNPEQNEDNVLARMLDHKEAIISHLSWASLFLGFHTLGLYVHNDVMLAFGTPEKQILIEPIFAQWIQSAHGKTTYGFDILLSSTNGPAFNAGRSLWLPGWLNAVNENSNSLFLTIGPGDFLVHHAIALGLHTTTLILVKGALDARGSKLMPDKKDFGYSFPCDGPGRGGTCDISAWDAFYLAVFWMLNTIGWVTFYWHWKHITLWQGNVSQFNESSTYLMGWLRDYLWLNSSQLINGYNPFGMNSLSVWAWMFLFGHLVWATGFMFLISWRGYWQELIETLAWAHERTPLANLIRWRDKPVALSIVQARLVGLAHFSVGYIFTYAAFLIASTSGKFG
T2 sequence (A0A3G1ATU7 2-81 partner): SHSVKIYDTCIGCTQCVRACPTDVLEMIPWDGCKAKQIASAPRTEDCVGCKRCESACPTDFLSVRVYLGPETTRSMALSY
T2 sequence (A0A3G1AZM6 1-36 partner): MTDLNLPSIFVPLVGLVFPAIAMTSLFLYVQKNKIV

T1 sequence (A0A3G1AUL2 1-750): as the sequence (A0A3G1AUL2 1-750) above
T1 sequence (A0A3G1AZK6 1-734): as the sequence (A0A3G1AZK6 1-734) above
T1 sequence (A0A3G1ATU7 2-81 partner): as the sequence (A0A3G1ATU7 2-81 partner) above
T1 sequence (A0A3G1AZM6 1-36 partner): as the sequence (A0A3G1AZM6 1-36 partner) above
T1 sequence (A0A3G1AZP2 1-42 partner): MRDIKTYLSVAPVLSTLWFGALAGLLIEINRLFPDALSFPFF

CC1=C(/C=C/C(C)=C/C=C/C(C)=C/C=C/C=C(C)/C=C/C=C(C)/C=C/C2=C(C)CCCC2(C)C)C(C)(C)CCC1 [BCR, β-carotene]
cryo-EM structure (2.2 Å) (mature PSI; native pigment, site BCR856, near the PSI core - LHCI interface): the head group of β-carotene BCR856 resides in the mature structure

CC1=C(C/C=C(\C)CCC[C@H](C)CCC[C@H](C)CCCC(C)C)C(=O)c2ccccc2C1=O [PQN, phylloquinone]
cryo-EM structure (2.2 Å) (mature PSI; native cofactor, site PQN844 of PsaA): phylloquinone PQN844 (PsaA) shows an altered conformation of the isoprenoid chain
cryo-EM structure (2.1 Å) [1]: phylloquinone PQN844 (PsaA) shows an altered conformation of the isoprenoid chain
